From patent US7166617B2, “Cyclic amide derivatives” (Mitsubishi Pharma Corporation, priority 2000, dated 2007) come the findings set out here.

pKi: −log10 of the molar value. Counter-ions that a name gives are not always drawn.

In one assay the target is T1, sigma 2 receptor (Rattus norvegicus, UniProt Q5U3Y7).
T1 construct: A crude P2 membrane fraction was prepared from livers of male rats (Sprague-Dawley rats); from tissue; host or cells: rat liver (male Sprague-Dawley), crude P2 membrane fraction
T1 sequence (Q5U3Y7 1-176): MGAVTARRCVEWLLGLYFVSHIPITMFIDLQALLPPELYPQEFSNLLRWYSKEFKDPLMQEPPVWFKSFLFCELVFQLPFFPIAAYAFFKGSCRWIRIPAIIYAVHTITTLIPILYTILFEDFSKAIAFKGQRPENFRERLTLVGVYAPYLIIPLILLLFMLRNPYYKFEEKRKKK
Kind of assay: Sigma 2-selective receptor binding inhibition test ([3H]-DTG, rat liver P2 membrane fraction). The note with it: [3H]-DTG 1 nM, 500 nM pentazocine, P2 fraction of livers of male Sprague-Dawley rats, 25° C., 2 hours. The method, then: Sigma Binding Site-Binding Inhibition Test
A crude P2 membrane fraction was prepared from livers of male rats (Sprague-Dawley rats) according to a method described in the literature (X. He, et al., J. Med. Chem., 36, pp. 566–571, 1993). In the presence of 500 nM pentazocine and a control compound at various concentrations (haloperidol, 10^−10 to 10^−6 M) or a test ligand at various concentrations (10^−10 to 10^−5 M) together with a radioactive ligand, the P2 fraction (0.4 ml) was incubated in 50 mM Tris-HCl (pH 7.4, final volume: 0.5 ml) at 25° C. for 2 hours. The reaction mixture was rapidly filtered on a Brandel cell harvester using Whatman GF/B filter paper, which was immersed beforehand in 0.5% polyethyleneimine for 1 hour, to stop the reaction. The filter paper was washed 4 times with the ice cooled incubation buffer. The non-specific results were evaluated by using 1 μM haloperidol, and the scintillation analysis and the curve analysis were performed as described above.
In general, pKi refers to the negative decadic logarithm of the Ki, by convention in mol/L. Compound `O=C1c2ccc(Br)cc2CN1CC1CCN(CCc2ccc(F)cc2)CC1` [Example 160, 5-Bromo-2-[1-[2-(4-fluorophenyl)ethyl]piperidin-4-ylmethyl]isoindolin-1-one fumarate] gave a negative logarithm of the Ki (pKi) of 8.00.
On to `O=C(CN1CCC(CN2Cc3cc(Br)ccc3C2=O)CC1)c1ccc(F)cc1` [Example 3, 5-Bromo-2-[[1-[2-(4-fluorophenyl)-2-oxoethyl]piperidin-4-yl]methyl]isoindolin-1-one hydrochloride], for which the negative-log Ki (pKi) is 8.15.
`O=C(CCN1CCC(CN2Cc3ccccc3C2=O)CC1)c1ccccc1` [Example 30, 2-[[1-[3-Phenyl-3-oxopropyl]piperidin-4-yl]methyl]isoindolin-1-one hydrochloride] had a pKi of 7.66. This pKi is 0.49 log units lower than that of the compound before.
In turn, `O=C1c2ccccc2CN1CC1CCN(CCc2c[nH]c3ccccc23)CC1` [Example 36, 2-[[1-[2-(Indol-3-yl)ethyl]piperidin-4-yl]methyl]isoindolin-1-one ½.fumarate] had a pKi of 7.30.
As to `O=C(CN1CCC(CN2Cc3ccccc3C2=O)CC1)c1ccccc1` [Example 13, 2-[[1-(2-Phenyl-2-oxoethyl)piperidin-4-yl]methyl]isoindolin-1-one hydrochloride], the negative-log Ki (pKi) was 8.18.
As for `O=C(CN1CCC(CN2Cc3cc(F)ccc3C2=O)CC1)c1ccc(F)cc1` [Example 154, 5-Fluoro-2-[[1-[2-(4-fluorophenyl)-2-oxoethyl]piperidin-4-yl]methyl]isoindolin-1-one hydrochloride], the pKi is 7.80.
Consider `O=C(CN1CCC(CN2Cc3c(F)cccc3C2=O)CC1)c1ccc(F)cc1` [Example 6, 4-Fluoro-2-[[1-[2-(4-fluorophenyl)-2-oxoethyl]piperidin-4-yl]methyl]isoindolin-1-one hydrochloride], for which the pKi is 8.06.
In the case of `O=C(CN1CCC(CN2Cc3ccccc3C2=O)CC1)N1CCCCC1` [Example 50, 2-[[1-[2-Oxo-2-(piperidin-1-yl)ethyl]piperidin-4-yl]methyl]isoindolin-1-one fumarate], the negative-log Ki (pKi) is 7.85. Compared with the last compound, the pKi is 0.21 log units lower.
Regarding `O=C1c2ccc(Br)cc2CN1CC1CCN(CC(O)c2ccc(F)cc2)CC1` (racemic) [Example 17, (R,S)-5-Bromo-2-[[1-[2-(4-fluorophenyl)-2-hydroxyethyl]piperidin-4-yl]methyl]isoindolin-1-one hydrochloride], the negative-log Ki (pKi) was 7.62.
Regarding `O=C(CN1CCC(CN2Cc3c(Br)cccc3C2=O)CC1)c1ccc(F)cc1` [Example 2, 4-Bromo-2-[[1-[2-(4-fluorophenyl)-2-oxoethyl]piperidin-4-yl]methyl]isoindolin-1-one hydrochloride], the pKi is 8.55.
With `O=C(CN1CCC(CN2Cc3ccccc3C2=O)CC1)c1ccc(F)cc1` [Example 1, 2-[[1-[2-(4-Fluorophenyl)-2-oxoethyl]piperidin-4-yl]methyl]isoindolin-1-one hydrochloride], the pKi was 7.89.
`COc1ccc2c(c1)CN(CC1CCN(CCc3ccc(F)cc3)CC1)C2=O` [Example 159, 5-Methoxy-2-[1-[2-(4-fluorophenyl)ethyl]piperidin-4-ylmethyl]isoindolin-1-one fumarate] showed a negative logarithm of the Ki (pKi) of 7.60.
Still for that read-out and setting: in the case of `COc1ccccc1CCN1CCC(CN2Cc3ccccc3C2=O)CC1` [Example 26, 2-[[1-[2-(2-Methoxyphenyl)ethyl]piperidin-4-yl]methyl]isoindolin-1-one hydrochloride] it was 8.00.
On to `COc1ccc2c(c1)CN(CC1CCN(CC(=O)c3ccc(F)cc3)CC1)C2=O` [Example 9, 5-Methyloxy-2-[[1-[2-(4-fluorophenyl)-2-oxoethyl]piperidin-4-yl]methyl]isoindolin-1-one hydrochloride], for which the pKi was 8.31.
`O=C(CN1CCC(CN2Cc3ccc(F)cc3C2=O)CC1)c1ccc(F)cc1` [Example 7, 6-Fluoro-2-[[1-[2-(4-fluorophenyl)-2-oxoethyl]piperidin-4-yl]methyl]isoindolin-1-one hydrochloride] showed a pKi of 7.80.
For the compound `O=C(CN1CCC(CN2Cc3ccccc3C2=O)CC1)C1CCCCC1` [Example 84, 2-[[1-(2-Cyclohexyl-2-oxoethyl)piperidin-4-yl]methyl]isoindolin-1-one fumarate], the negative-log Ki (pKi) was 8.47.
Consider `O=C(CN1CCC(CN2Cc3ccc(Br)cc3C2=O)CC1)c1ccc(F)cc1` [Example 4, 6-Bromo-2-[[1-[2-(4-fluorophenyl)-2-oxoethyl]piperidin-4-yl]methyl]isoindolin-1-one hydrochloride], for which the pKi was 8.12.

The same assay, now with this note: test compound 10 nM; [3H]-DTG 1 nM, 500 nM pentazocine, rat liver P2 fraction.
For the compound `CCCCn1cccc1C(=O)CN1CCC(CN2Cc3ccccc3C2=O)CC1.Cl` [Example 94, 2-[[1-[2-[2-(1-Butyl)pyrrolyl]-2-oxoethyl]piperidin-4-yl]methyl]isoindolin-1-one hydrochloride], the “Inhibitory rate against sigma 2 (%, 10 nM)” value is reported as 83%.
On the same count and under the same terms, with `COc1ccccc1SCCN1CCC(CN2Cc3ccccc3C2=O)CC1.O=C(O)/C=C/C(=O)O` [Example 110] the figure was 68%.

The assay is the same for the next values; noted with them: test compound 10 nM; [3H]-DTG 1 nM, 500 nM pentazocine, rat liver P2 fraction; read-out: Inhibitory rate against sigma 2 (%, 10 nM).
Take `Cc1cccc(C(=O)CN2CCC(CN3Cc4ccccc4C3=O)CC2)c1` [Example 78, 2-[[1-[2-(3-Tolyl)-2-oxoethyl]piperidin-4-yl]methyl]isoindolin-1-one fumarate]: the inhibition at 0.01 µM worked out at 86%.
The same measure, in the same setting: with `O=C1c2ccc(Br)cc2CN1CC1CCN(CCOc2ccc(F)cc2)CC1` [Example 177, 2-[1-[2-(4-Fluorophenyloxy)ethyl]piperidin-4-ylmethyl]-5-bromoisoindolin-1-one hydrochloride] the figure was 55%; with `Cc1ccccc1C(=O)CN1CCC(CN2Cc3ccccc3C2=O)CC1` [Example 77, 2-[[1-[2-(2-Tolyl)-2-oxoethyl]piperidin-4-yl]methyl]isoindolin-1-one fumarate], 80%.
Consider `COc1cccc(SCCN2CCC(CN3Cc4ccccc4C3=O)CC2)c1` [Example 111, 2-[[1-[2-(3-Methoxyphenylthio)ethyl]piperidin-4-yl]methyl]isoindolin-1-one fumarate], for which the inhibition at 0.01 µM came to 51%.
On the same count and under the same terms, in the case of `O=C1c2ccccc2CN1CC1CCN(CCOc2ccccc2)CC1` [Example 114, 2-[[1-(2-Phenoxyethyl)piperidin-4-yl]methyl]isoindolin-1-one fumarate] it was 51%.
As for `O=C(CN1CCC(CN2Cc3ccccc3C2=O)CC1)N1CCCCC1` [Example 50, 2-[[1-[2-Oxo-2-(piperidin-1-yl)ethyl]piperidin-4-yl]methyl]isoindolin-1-one fumarate], the inhibition at 0.01 µM was 52%.
The same measure, in the same setting: in the case of `O=C(CN1CCC(CN2Cc3ccccc3C2=O)CC1)c1cccc(Cl)c1` [Example 76, 2-[[1-[2-(3-Chlorophenyl)-2-oxoethyl]piperidin-4-yl]methyl]isoindolin-1-one fumarate] it was 84%; in that of `O=C1c2cccc(F)c2CN1CC1CCN(CCOc2ccc(F)cc2)CC1` [Example 181, 4-Fluoro-2-[1-[2-(4-fluorophenoxy)ethyl]piperidin-4-ylmethyl]isoindolin-1-one fumarate], 70%.
In the case of `COc1ccccc1C(=O)CN1CCC(CN2Cc3ccccc3C2=O)CC1` [Example 72, 2-[[1-[2-(2-Methoxyphenyl)-2-oxoethyl]piperidin-4-yl]methyl]isoindolin-1-one fumarate], the inhibition at 0.01 µM was 55%.
With `O=C1c2ccccc2CN1CC1CCN(CCSc2ccccc2)CC1` [Example 109, 2-[[1-[2-(Phenylthio)ethyl]piperidin-4-yl]methyl]isoindolin-1-one fumarate], the inhibition at 0.01 µM stood at 68%.
Consider `O=C1c2ccccc2CN1CC1CCN(CC(=O)N2CCc3ccccc32)CC1` [Example 51, 2-[[1-[2-(Indolin-1-yl)-2-oxoethyl]piperidin-4-yl]methyl]isoindolin-1-one fumarate], for which the inhibition at 0.01 µM worked out at 74%.
Same read-out and setting: with `O=C1c2ccccc2CN1CC1CCN(CC(=O)N2CCCc3ccccc32)CC1` [Example 48, 2-[[1-[2-(1,2,3,4-Tetrahydroquinolin-1-yl)-2-oxoethyl]piperidin-4-yl]methyl]isoindolin-1-one hydrochloride] the figure was 59%.
Take `O=C1c2ccccc2CN1CC1CCN(CCc2cccc3ccccc23)CC1` [Example 97, 2-[[1-[2-(1-Naphthyl)ethyl]piperidin-4-yl]methyl]isoindolin-1-one fumarate]: the inhibition at 0.01 µM worked out at 59%.
Consider `O=C1c2ccccc2CN1CC1CCN(CCN2CCc3ccccc32)CC1` [Example 53, 2-[[1-[2-(Indolin-1-yl)ethyl]piperidin-4-yl]methyl]isoindolin-1-one fumarate], for which the inhibition at 0.01 µM was 57%.
In the case of `O=C1c2ccccc2CN1CC1CCN(CCSc2cccc(F)c2)CC1` [Example 113, 2-[[1-[2-(3-Fluorophenylthio)ethyl]piperidin-4-yl]methyl]isoindolin-1-one fumarate], the inhibition at 0.01 µM turned out to be 64%.
In the case of `O=C(CN1CCC(CN2Cc3ccccc3C2=O)CC1)C1CCCCC1` [Example 84, 2-[[1-(2-Cyclohexyl-2-oxoethyl)piperidin-4-yl]methyl]isoindolin-1-one fumarate], the inhibition at 0.01 µM came to 58%.
`COc1ccccc1CCN1CCC(CN2Cc3cc(C#N)ccc3C2=O)CC1` [Example 170, 5-Cyano-2-[1-[2-(2-methoxyphenyl)ethyl]piperidin-4-ylmethyl]isoindolin-1-one fumarate]: the inhibition at 0.01 µM turned out to be 52%.
